Assay type in all cases: functional
The test system of test [1] is Neisseria gonorrhoeae. Description: Antibacterial activity against Neisseria gonorrhoeae isolate SM1 expressing SF-A mosaic penA allele by agar dilution method. On the technique in general: In agar dilution the substance is mixed into plates at graded concentrations.
Test [2] has as its system Neisseria gonorrhoeae. Kind of test: Antibacterial activity against Neisseria gonorrhoeae isolate SM2 expressing SF-A mosaic penA allele by agar dilution method.
For test [3], the system named is Neisseria gonorrhoeae. Description: Antibacterial activity against Neisseria gonorrhoeae isolate SM3 expressing SF-A mosaic penA allele by agar dilution method.
The test system of test [4] is Neisseria gonorrhoeae. Description: Antibacterial activity against Neisseria gonorrhoeae isolate SM4 expressing SF-B mosaic penA allele by agar dilution method.
The test system of test [5] is Neisseria gonorrhoeae. Description: Antibacterial activity against Neisseria gonorrhoeae isolate SM5 expressing SF-B mosaic penA allele by agar dilution method.
The test system of test [6] is Neisseria gonorrhoeae. Description: Antibacterial activity against Neisseria gonorrhoeae isolate SW1 expressing nonmosaic penA allele by agar dilution method.
The subject of test [7] is Neisseria gonorrhoeae. Kind of test: Antibacterial activity against Neisseria gonorrhoeae isolate SW2 expressing nonmosaic penA allele by agar dilution method.

Converted amounts (≈) assume the structure as drawn. A value given as a limit tells only on which side of the number the result lay.

As usually defined, the MIC is the lowest concentration found to suppress growth.

Regarding `C=CC1=C(C(=O)O)N2C(=O)[C@@H](NC(=O)/C(=N\OCC(=O)O)c3csc(N)n3)[C@H]2SC1` [CEFIXIME], the MIC was 0.25 µg/mL (≈ 0.551 µM) with Neisseria gonorrhoeae [1]; 0.125 µg/mL (≈ 0.276 µM) in the test on Neisseria gonorrhoeae [2]; 0.25 µg/mL (≈ 0.551 µM) against Neisseria gonorrhoeae [3]; not above 0.008 µg/mL in the test with Neisseria gonorrhoeae [4]; 0.015 µg/mL (≈ 0.0331 µM) against Neisseria gonorrhoeae [5]; not above 0.008 µg/mL in the test with Neisseria gonorrhoeae [6]. The compound also displayed an MIC in the test on Neisseria gonorrhoeae [7] of 0.015 µg/mL (≈ 0.0331 µM).

With `COCC1=C(C(=O)O)N2C(=O)[C@@H](NC(=O)/C(=N\OC)c3csc(N)n3)[C@H]2SC1` [CEFPODOXIME], the minimal inhibitory concentration (MIC) in the test on Neisseria gonorrhoeae [1] was 1 µg/mL (≈ 2.34 µM); in the test on Neisseria gonorrhoeae [2], 0.5 µg/mL (≈ 1.17 µM); against Neisseria gonorrhoeae [3], 1 µg/mL (≈ 2.34 µM); in the test with Neisseria gonorrhoeae [4], 0.06 µg/mL (≈ 0.14 µM); in the test with Neisseria gonorrhoeae [5], 0.25 µg/mL (≈ 0.585 µM); in the test on Neisseria gonorrhoeae [6] it was 0.015 µg/mL (≈ 0.0351 µM). Also, in the test on Neisseria gonorrhoeae [7], the minimal inhibitory concentration (MIC) turned out to be 0.03 µg/mL (≈ 0.0702 µM).

As to `CO/N=C(\C(=O)N[C@@H]1C(=O)N2C(C(=O)O)=C(CSc3nc(=O)c(O)nn3C)CS[C@H]12)c1csc(N)n1` [CEFTRIAXONE], the MIC in the test on Neisseria gonorrhoeae [1] is 0.06 µg/mL (≈ 0.108 µM); against Neisseria gonorrhoeae [2], 0.06 µg/mL (≈ 0.108 µM); with Neisseria gonorrhoeae [3], 0.03 µg/mL (≈ 0.0541 µM); in the test with Neisseria gonorrhoeae [4], not above 0.008 µg/mL; against Neisseria gonorrhoeae [5], not above 0.008 µg/mL; in the test on Neisseria gonorrhoeae [6], not above 0.008 µg/mL. Also, in the test on Neisseria gonorrhoeae [7], the MIC was not above 0.008 µg/mL.

(Values after ChEMBL document CHEMBL1649580, “Mosaic penicillin-binding protein 2 in Neisseria gonorrhoeae isolates collected in 2008 in San Francisco, California” (2009).)
